Experimental data reported in patent US8809321B2, “Diaryl ether linked pyrrolo [2,1-c][1,4] benzodiazepine hybrids and process for the preparation thereof” (Council of Scientific and Industrial Research, priority 2011, dated 2014).

Columns and labels:
[1] = system: duplex-form calf thymus DNA (CT-DNA); assay: Thermal denaturation studies with calf thymus DNA (DNA binding affinity); settings: [PBD]:[DNA] molar ratio 1:5, CT-DNA 100 μM, ligand 20 μM, sodium phosphate buffer pH 7.00; for (ΔTm ° C.) after incubation at 37° C. for 0 h: 0 h at 37° C.; for (ΔTm ° C.) after incubation at 37° C. for 18 h: 18 h at 37° C.
Experimental: DNA Binding Affinity of Diaryl Ether Linked PBD Hybrids: Compounds have been subjected to thermal denaturation studies with duplex-form calf thymus DNA (CT-DNA) using a modification of a reported procedure (Newman, M. S. Carcinog-compr. Surv. 1976, 1, 203; ([…].; Loy, M.; Hoffman, Carcinog-compr. […] The DNA-PBD solutions have been incubated at 37° C. for 0 and 18 h prior to analysis. […] DNA helix→coil transition temperatures (Tm) have been obtained from the maxima in the d(A260)/dT derivative plots. […] The DNA binding activity for these novel C8-linked diaryl ether PBD hybrids has been examined by thermal denaturation studies using calf thymus (CT) DNA. […] The data for the compounds are included in Table 1 for comparison.

[2] = system: MCF7 breast cancer cell line; assay: MTT assay, 48 h continuous drug exposure, MCF7; assay type: cell-based, human
Experimental: (§1) Some of the C8-linked diaryl ether-PBD hybrids have been tested against eleven human tumour cell lines derived from seven cancer types (lung cancer, colon cancer, cervix, ovarian cancer, oral cancer, prostate cancer and breast cancer) as per Tata protocol as shown in Table 2. For each compound, dose response curves for each cell line were measured at a minimum of five concentrations at 10 fold dilutions. A protocol of 48 h continuous drug exposure was used and a MTT assay was used to estimate cell viability or growth. The percent of cell growth (GI50) compared with the control was calculated. Some of the compounds have been evaluated for their in vitro cytotoxicity in eleven cell lines from seven human cancer types. The results are expressed as GI50 determined relative to that of untreated control cells (Table-2).

[3] = system: Colo205 colon cancer cell line; assay: MTT assay, 48 h continuous drug exposure, Colo205; assay type: cell-based, human
Experimental: as §1

[4] = system: A549 lung cancer cell line; assay: MTT assay, 48 h continuous drug exposure, A549; assay type: cell-based, human
Experimental: as §1

[5] = system: Hop62 lung cancer cell line; assay: MTT assay, 48 h continuous drug exposure, Hop62; assay type: cell-based, human; settings: lung cancer cell line; 48 h exposure; MTT; read-out: GI50 Hop62
Experimental: (§2) For each compound, dose response curves for each cell line were measured at a minimum of five concentrations at 10 fold dilutions. A protocol of 48 h continuous drug exposure was used and a MTT assay was used to estimate cell viability or growth. The percent of cell growth (GI50) compared with the control was calculated.

[6] = system: PC3 prostrate cancer cell line; assay: MTT assay, 48 h continuous drug exposure, PC3; assay type: cell-based, human; settings: prostrate cancer cell line; 48 h exposure; MTT; read-out: GI50 PC3
Experimental: as §2

[7] = system: ZR-751 breast cancer cell line; assay: MTT assay, 48 h continuous drug exposure, ZR-751; assay type: cell-based, human; settings: breast cancer cell line; 48 h exposure; MTT; read-out: GI50 ZR-751
Experimental: as §2

[8] = system: A2780 ovarian cancer cell line; assay: MTT assay, 48 h continuous drug exposure, A2780; assay type: cell-based, human; settings: ovarian cancer cell line; 48 h exposure; MTT; read-out: GI50 A2780
Experimental: as §2

[9] = system: SiHa Cervix cancer cell line; assay: MTT assay, 48 h continuous drug exposure, SiHa; assay type: cell-based, human; settings: Cervix cancer cell line; 48 h exposure; MTT; read-out: GI50 SiHa
Experimental: as §2

[10] = system: Gurav oral cancer cell line; assay: MTT assay, 48 h continuous drug exposure, Gurav; assay type: cell-based, human; settings: oral cancer cell line; 48 h exposure; MTT; read-out: GI50 Gurav
Experimental: as §2

[11] = system: DWD oral cancer cell line; assay: MTT assay, 48 h continuous drug exposure, DWD; assay type: cell-based, human; settings: oral cancer cell line; 48 h exposure; MTT; read-out: GI50 DWD
Experimental: as §2

[12] = Homo sapiens, MCF7, 48 h exposure
[13] = Homo sapiens, COLO 205, 48 h exposure
[14] = Homo sapiens, A549, 48 h exposure

Row | SMILES | (ΔTm ° C.) after incubation at 37° C. for 0 h [1] [°C] | (ΔTm ° C.) after incubation at 37° C. for 18 h [1] [°C] | GI50 [2, 12] [µM] | GI50 [3, 13] [µM] | GI50 [4, 14] [µM] | GI50 [5] [µM] | GI50 [6] [µM] | GI50 [7] [µM] | GI50 ([2]; 48 h exposure) [µM] | GI50 [8] [µM] | GI50 [9] [µM] | GI50 [10] [µM] | GI50 ([3]; 48 h exposure) [µM] | GI50 [11] [µM] | GI50 ([4]; 48 h exposure) [µM]
1 | COc1ccc(Oc2ccc(O)cc2N)cc1OC [5b, 3-amino-4-(3,4-dimethoxyphenoxy)phenol, reference compound] | 0.1 | 0.2 | > 50 | > 50 | > 50 | – | – | – | – | – | – | – | – | – | –
2 | COc1ccc(Oc2ccc(C(=O)N3CCNCC3)cc2N)cc1OC [7b, [3-amino-4-(3,4-dimethoxyphenoxy)phenyl](piperazino)methanone, reference compound] | 0.2 | 0.5 | > 50 | > 50 | > 50 | – | – | – | – | – | – | – | – | – | –
3 | COc1ccc(Oc2cc(OCCCCCOc3cc4c(cc3OC)C(=O)N3CCC[C@H]3C=N4)ccc2N)cc1 [10g, 7-Methoxy-(8-5-[4-amino-3-(4-methoxyphenoxy)phenoxy]pentyloxy)-(11aS)-1,2,3,11a-tetrahydro-5H-pyrrolo[2,1-c][1,4]benzodiazepin-5-one] | 2.9 | 3.6 | – | – | – | 2.1 | 2.84 | 3.1 | 2.3 | 2.3 | 1.56 | 2.43 | 1.5 | 2.4 | 2.84
4 | COc1ccc(Oc2cc(OCCCCCOc3cc4c(cc3OC)C(=O)N3CCC[C@H]3C=N4)ccc2N)cc1OC [11g, 7-Methoxy-(8-5-[4-amino-3-(3,4-dimethoxyphenoxy)phenoxy]pentyloxy)-(11aS)-1,2,3,11a-tetrahydro-5H-pyrrolo[2,1-c][1,4]benzodiazepin-5-one] | 4.1 | 5.5 | – | – | – | 2.43 | 2.25 | 2.5 | 0.16 | 0.17 | 1.99 | 0.16 | 0.17 | 0.18 | 2.01
5 | COc1cc2c(cc1OCCCCCOc1ccc(N)c(Oc3cc(OC)c(OC)c(OC)c3)c1)N=C[C@@H]1CCCN1C2=O [12g, 7-Methoxy-(8-5-[4-amino-3-(3,4,5-trimethoxyphenoxy)phenoxy]pentyloxy)-(11aS)-1,2,3,11a-tetrahydro-5H-pyrrolo[2,1-c][1,4]benzodiazepin-5-one] | 4.2 | 5.1 | – | – | – | 2.86 | 2.19 | 2.1 | 0.16 | 0.17 | 2.86 | 0.17 | 0.16 | 0.17 | 0.19
6 | COc1ccc(Oc2ccc(OCCCCCOc3cc4c(cc3OC)C(=O)N3CCC[C@H]3C=N4)cc2I)cc1 [16c] | 3.6 | 4.6 | – | – | – | 1.5 | 2.12 | 3.3 | 2.1 | 2.3 | 1.42 | 2.23 | 2.22 | 2.6 | 2.7
